Source: patent US12178791B2, “Haloallylamine sulfone derivative inhibitors of lysyl oxidases and uses thereof” (Syntara Limited, priority 2018, dated 2024)
“Also recorded” adds a separate entry of the source. Structures can show the parent of a compound that is named as a salt.

What was measured:
[1] = tested on: scar tissue after excision of dermal tissue; test: Rodent injury model; format: in vivo, mice; conditions: 1% solution topical
Description: Mice received injury by excision of dermal tissue. In the treatment group, 1% Compound 1 solution was applied topically from 24 hours post injury to 1 week post injury. Wounds were then left to heal for an additional week. Mice were euthanized at 14 days post injury and the tissue was analyzed for collagen I content, and changes in gross morphology and histology.

[2] = tested on: lysyl oxidase; test: Target engagement: lysyl oxidase activity in the aorta; format: in vivo, Wistar rats
Description: Sample preparation: All preparation activities were performed on ice, with buffers in presence of proteases inhibitors (PMSF: Sigma P7626, 0.25 mM, Aprotinin: Sigma A6279, 1 μL per mL) (Methods in Cell Biology, 2018; 143: 147-156). The surrounding adventitia and muscle/fat from the frozen aorta sample was removed in ice-cold Wash Buffer (0.15 M NaCl, 50 mM sodium borate, pH=8.0, with protease inhibitors) using fine forceps, under a dissecting microscope. The aorta was blotted on a Kimwipe and weighed in a 1.5 mL Eppendorf tube and left on ice. After snap-freezing the aorta in liquid nitrogen, a mortar and the pestle (stored at −80° C.) was used to pulverize the tissue. The pulverized tissue was transferred to a designated tube containing metal beads, 10× v/w Wash Buffer+protease inhibitors. The tissues was homogenized for 5 seconds using a bead-mill. The homogenate was centrifuged at 10,000×g for 10 minutes at 4° C. and the supernatant was discarded. Homogenization and washing steps were repeated twice more. […]
Assay: Pargyline (final concentration 0.5 mM) and mofegiline (final concentration 1 μM) were added to the samples. […] Plate fluorescence was then measured every 2.5 min (Ex: 544 nm/Em: 590 nm/gain: 1260; 37° C.) on Fluostar™.
[…] The responses were normalised to the activity measured in animals treated with saline (control).

[3] = tested on: kidney fibrosis (UUO); test: Unilateral ureteral obstruction (UUO) model of acute kidney fibrosis; format: in vivo, mice; conditions: 10 mg/kg daily orally, 14 days
Description: A 14-day unilateral ureteric obstruction (UUO) model of acute kidney fibrosis in mice was conducted to mimic the different stages of obstructive nephropathy leading to tubulointerstitial fibrosis in an accelerated manner UUO surgery was performed by ligation of the left ureter and induced decrease of left kidney thickness and atrophy (indicated by a significant decrease in kidney weight and ratio of kidney/body weight when compared to the contralateral side) as well as a significant increase in kidney fibrosis. Treatment groups received Compound 33 (10 mg/kg daily) orally for the duration of the study. Compound 33 increased kidney weight and thickness and reduced the area of fibrosis as measured by Picrosirius Red (FIG. 9). Captopril (˜32 mg/kg/day in drinking water) was used as a positive control.

[4] = tested on: bleomycin-induced lung fibrosis; test: Bleomycin-induced lung fibrosis model; format: in vivo, C57Bl/6 mice; conditions: daily oral gavage for 21 days
Description: C57Bl/6 mice were given 1.5 U/kg amounts of generic clinical Bleomycin (Blenoxane) via oropharyngeal administration. Compound 33 was dosed daily via oral gavage for 21 days, after which time, tissues were harvested and analyzed.

[5] = tested on: CCl4 hepatic fibrosis / 4t1 metastasis; test: CCl4 induced liver fibrosis with orthotopic 4t1 breast cancer cells (fibrosis associated metastasis); format: in vivo, BALB/c mice; conditions: 20 mg/kg daily ip
Description: Hepatic fibrosis was induced by treated of BALB/c mice twice weekly with 1 mg/kg carbon tetrachloride (CCl4) for a period of 8 wks.

| SMILES | Collagen I quantity (LCMS, normalized for protein content) ([1]; 24 hours to 1 week post injury, analysis 14 days post injury, vs control, hydrochloride) | Histology: collagen bundles in scar tissue ([1]; 14 days post injury) | half-life of recovery of lysyl oxidase activity (aorta) ([2]; single oral dose) | lysyl oxidase enzymatic activity in rat aorta ([2]; single oral dose at 5, 10 or 30 mg/kg, vs untreated control) | area of fibrosis as measured by Picrosirius Red [3] | kidney weight and thickness [3] | lung weight [4] | reduction of immature (DHLNL) cross-links per lung [4] | reduction of mature (PYD) cross-links per lung [4] | Ashcroft score ([4]; dihydrochloride) | collagen cross-links in the liver [5] | primary tumor growth or collagen cross-links (primary tumor) [5] | liver fibrosis ([5]; 8 wks CCl4) | metastatic load in the liver ([5]; dihydrochloride) |
| --- | --- | --- | --- | --- | --- | --- | --- | --- | --- | --- | --- | --- | --- | --- |
| NC/C=C(\F)CS(=O)(=O)c1ccccc1 [Compound 1, (Z)-3-fluoro-4-(phenylsulfonyl)but-2-en-1-amine hydrochloride] | reduction in collagen; also recorded: reduced | decreased density of bundles |  |  |  |  |  |  |  |  |  |  |  |  |
| NC/C=C(\F)CS(=O)(=O)c1cccc2cccnc12 [Compound 33, (Z)-3-fluoro-4-(quinolin-8-ylsulfonyl)but-2-en-1-amine dihydrochloride] |  |  | 24 h | dose-dependent block | reduced | increased | significantly reduced | 37% | 45% | reduce; also recorded: significantly reduced | significantly reduced | No differences | significantly reduced | reduce; also recorded: significantly reduced |
